{"source": "patent US10080779B2", "about": "“Method for increasing the expression of anti-microbial peptides by keratinocytes comprising administering a composition comprising IL-17, TNF-alpha and OSM” (Universite D'Angers, priority 2004, dated 2018)", "key": {"[1]": {"tested_on": "NHEK", "experiment": "Gene expression profiling of NHEK using cDNA macroarrays", "assay_type": "cell-based, human", "conditions": "10 ng/ml OSM 24 h", "method": "Total RNA was isolated as described for PCR studies. DNase treatment, polyA^+ RNA enrichment, ^33P-labelled cDNA probe synthesis, purification and hybridization to custom Atlas array membranes (Bernard, Pedretti et al. 2002) were performed according to Clontech's recommendations (Clontech, Palo Alto, USA). Membranes were exposed for 5 days to a Molecular Dynamics Storm storage screen and scanned using a phosphorimager scanner (Molecular Dynamics Storm analyser, Amersham Biosciences, Uppsala, Sweden). After local background substraction, average signal intensity from duplicate spots was normalized for differences in probe labelling using the values obtained for housekeeping genes (Bernard et al., 2002). For each gene, the OSM-induced modulation was expressed as the relative expression value for stimulated versus control sample. Arbitrarily, only modulation above 2 was considered significant for confirmation using RT-real time PCR assay."}, "[2]": {"tested_on": "normal human keratinocytes (NHEK)", "experiment": "Cytokine cocktails on S100A7, hBD2/4, KRT10 mRNA in NHEK (RT-Q-PCR)", "assay_type": "cell-based", "conditions": "NHEK 24 hrs, 1 ng/ml each", "method": "Quantitative real time PCR was carried out using the LightCycler-FastStart DNA Master^PLUS SYBR Green I kit (Roche, Mannheim, Germany). The reaction components were 1× FastStart DNA Master^PLUS SYBR Green I and 0.5 μM of forward and reverse primers for S100A7 (forward 5′-[…]-3′ (SEQ ID No: 9) and reverse 5′-[…]-3′ (SEQ ID No: 10)), S100A8 (Pattyn, Speleman et al. 2003), S100A9 (forward 5′-[…]-3′ (SEQ ID No: 11) and reverse 5′-[…]-3′ (SEQ ID No: 12)), hBD2/4 (forward 5′-[…]-3′ (SEQ ID No: 13) and reverse 5′-[…]-3′ (SEQ ID No: 14)), KRT10 (forward 5′-[…]-3′ (SEQ ID No: 15) and reverse 5′-[…]-3′ (SEQ ID No: 16)), and hydroxymethyl-bilane synthase (HMBS) as a housekeeping gene (Vandesompele, De Preter et al. 2002). After cDNA fluorescent quantification using propidium iodide, 250 ng, 25 ng and 2.5 ng of cDNA were added as PCR template in the LightCycler glass capillaries. The cycling conditions comprised a 10 min polymerase activation at 95° C. and 50 cycles at 95° C. for 10 s, 64° C. for 5 s and 72° C. for 18 s with a single fluorescence measurement. […] A mathematical model was used to determine the relative quantification of target genes compared to HMBS reference gene (Pfaffl 2001).\nTo that aim, confluent normal human keratinocytes (NHEK) were treated for 24 hrs with the indicated mix of cytokines (each cytokine at 1 ng/ml final concentration). Total RNA was extracted, reverse-transcribed and the expression of the selected genes was analyzed by real-time PCR as described."}, "[3]": {"tested_on": "NHEK", "experiment": "RT-QPCR of antimicrobial peptide and chemokine genes in NHEK", "assay_type": "cell-based, human", "conditions": "10 ng/ml, 24 h", "method": "NHEK were obtained as previously described, from surgical samples of healthy breast skin (Boniface et al, 2005). NHEK were cultured to 80% of confluence and then starved for 24 h in Keratinocyte SFM without addition of growth factors before stimulation. Cells were stimulated with or without 10 ng/ml of recombinant IL-17A, OSM, TNFα, IL-22 and IL-1α alone or in combination (R&D systems Europe, Lille, France) during 24 h for mRNA quantification or 48 h to 96 h for protein quantification.\nNHEK and skin total RNA were isolated and reverse-transcribed as previously described (Boniface et al, 2005). Quantitative real time PCR was carried using the LightCycler-FastStart DNA Master SYBR® Green I kit on LightCycler 480 (Roche Diagnostics, Meylan, France). The reaction components were 1×DNA Master Mix, and 0.5 μM of HPLC purified sense and anti-sense oligonucleotides purchased from Eurogentec (Eurogentec France, Angers, France), designed using Primer3 software. Samples were normalized to three independent control housekeeping genes (G3PDH, RPL13A or ACTB for human samples and G3PDH, HMBS or B2m for mouse samples) and reported according to the ΔΔCT method as RNA fold increase: 2^ΔΔCT=2^ΔCT sample−ΔCT eference. For comparison of normal skin and psoriatic skin the REST 2008 software was used (Pfaffl et al., 2002)."}, "[4]": {"tested_on": "RHE", "experiment": "KDM mRNA in reconstituted human epidermis (RT-PCR)", "assay_type": "cell-based", "conditions": "24 h", "method": "Normal human epidermal keratinocytes (NHEK) were obtained as previously described, from surgical samples of healthy breast skin (Boniface et al, 2005). NHEK were cultured to 80% of confluence allowing the expression of a large panel of keratinocyte differentiation markers, and then starved for 24 h in Keratinocyte SFM containing 0.03 mM Ca^2+ (Invitrogen Life Technologies, Cergy Pontoise, France) before stimulation. Confluent differentiated cells were stimulated with or without recombinant IL-17A, OSM, TNFα, IL-22 and IL-1α alone at maximum effective concentrations (reported previously around 10 ng/ml (Boniface et al, 2005 and Boniface et al, 2007)) or in combination (R&D systems Europe, Lille, France) during 2 h to 72 h for mRNA quantification. RHE were generated on polycarbonate culture inserts, from surgical samples of paediatric foreskins as previously described (Guenou et al., 2009). RHE were stimulated with or without recombinant IL-17A, OSM, TNFα, IL-22 and IL-1α alone or in combination, with or without a Janus protein Tyrosine Kinases (JAKs) inhibitor 10 μM (Calbiochem, 420099), during 24 h for mRNA quantification or during 72 h for immunohistological analysis.\nNHEK, RHE and murine skin total RNA were isolated using NucleoSpin® RNA II kit (Macherey-Nagel, Hoerdt, France) and reverse-transcribed with SuperScript® II Reverse Transcriptase (Invitrogen Life Technologies) according to the manufacturer's instructions. Quantitative real time PCR was carried out using the LightCycler-FastStart DNA Master SYBR® Green I kit on LightCycler 480 (Roche Diagnostics, Meylan, France). The reaction components were 1×DNA Master Mix, and 0.5 μM of HPLC purified sense and anti-sense oligonucleotides purchased from Eurogentec (Eurogentec France, Angers, France), designed using Primer3 software. The stability of the housekeeping gene expression has been assessed by using GeNorm algorithm. […] Thus samples were normalized to G3PDH housekeeping gene and reported according to the ΔΔCT method as RNA fold increase: 2^ΔΔCT=2^ΔCT sample−ΔCT reference."}}, "data": [{"substance": "OSM: human recombinant oncostatin M, cytokine of the IL-6 family", "values": [{"measurement": "Expression of CXCL1, CXCL5, CXCL8 and PDGF-A genes", "setting": "[1]", "result": "increased the expression"}, {"measurement": "Expression of calcium binding proteins S100A7, S100A8, S100A9, S100 neutrophil protein", "setting": "[1]", "result": "marked increase"}, {"measurement": "Expression of genes associated with keratinocyte differentiation (CK1, CK10, fillagrin, loricrin)", "setting": "[1]", "result": "down regulates"}, {"measurement": "Number of genes with decreased expression", "setting": "[1]; array of 586 cDNAs", "result": 38, "unit": "genes"}, {"measurement": "Number of genes with increased expression", "setting": "[1]; array of 586 cDNAs", "result": 36, "unit": "genes"}, {"measurement": "Decrease of the activity of the 5 cytokines reference mix on omission of the cytokine, S100A7", "setting": "[2]", "result": 3, "unit": "fold"}, {"measurement": "Decrease of the activity of the 5 cytokines reference mix on omission of the cytokine, hBD2/4", "setting": "[2]", "result": 2.5, "unit": "fold"}, {"measurement": "Number of the 21 chemokine and antimicrobial peptide genes upregulated", "setting": "[3]", "result": 13}, {"measurement": "Expression of KDM mRNA (CK10, CK1, LOR, FLG)", "setting": "[4]", "result": "most active cytokines"}, {"measurement": "S100A7 mRNA expression", "setting": "[4]", "result": "strongly induced"}]}]}
